Results: US10548870B2, “Method for treating multiple sclerosis” (OLATEC THERAPEUTICS LLC, priority 2017, dated 2020)

Legend:
Type in all cases: in vivo, C57Bl/6 mice
[1] = test system: experimental allergic encephalomyelitis (EAE) mice; test: Prophylactic intraperitoneal treatment of dapansutrile in EAE mice; conditions: 60 mg/kg i.p. twice daily, Day 0 to Day 21
Experimental: (§1) Active immunization was done in female adult (8 weeks old) C57Bl/6 mice. Briefly, mice were subcutaneously injected with […] of myelin oligodendrocyte glycoprotein (MOG)35-55 peptide ([…], SEQ ID NO: 1) emulsified in complete Freund's Adjuvant (Sigma Aldrich) supplemented with 4 mg of micobacterioum tuberculosis H37RA (DIFCO Laboratories). On day 0 and 2 post-immunization, mice were also injected intraperitoneally (i.p.) with 500 ng of pertussis toxin (List Biological Laboratories).
Starting on day 0 (day of immunization), mice were injected intraperitoneally twice daily with dapansutrile (OLT1177™, 60 mg/kg) or saline until the end of the study (Day 21). Each treated group had 10 mice.
Animals were monitored daily for signs of EAE and the scoring system is as follows: 0=no clinical symptoms, normal walking; 0.5=partial paralyzed tail, 1=fully paralyzed tail; 2=mild hind-limb weakness, quick righting reflex; 3=severe hind-limb weakness, slow righting reflex, unable to bear weight; 3.5=severe hind-limb weakness and partial paralysis of hind limb; 4=complete paralysis of at least one hind limbs; 4.5=complete paralysis of one or both one hind limbs and trunk weakness; 5=complete paralysis of one or both hind limbs, forelimb weakness or paralysis; 6=mouse is found dead by EAE. […]

[2] = test system: experimental allergic encephalomyelitis (EAE) mice; test: Prophylactic oral treatment (dapansutrile-enriched diet) in EAE mice
Experimental: as §1
(§2) Animals were monitored daily for signs of EAE and the scoring system is as follows: 0=no clinical symptoms, normal walking; 0.5=partial paralyzed tail, 1=fully paralyzed tail; 2=mild hind-limb weakness, quick righting reflex; 3=severe hind-limb weakness, slow righting reflex, unable to bear weight; 3.5=severe hind-limb weakness and partial paralysis of hind limb; 4=complete paralysis of at least one hind limbs; 4.5=complete paralysis of one or both one hind limbs and trunk weakness; 5=complete paralysis of one or both hind limbs, forelimb weakness or paralysis; 6=mouse is found dead by EAE.
(§3) EAE mice were euthanized at either day 21 or 23 post-immunization with an overdose of pentobarbital sodium (Dolethal) and transcardially perfused with 4% paraformaldehyde (PFA) in 0.1M phosphate buffer (PB). Lumbar segments of spinal cords were harvested, post-fixed in 4% PFA for 2 hours and cryoprotected in 30% sucrose in 0.1M at 4° C. for at least 48 hours. Spinal cords were embedded in TissueTek OCT (Sakura), cut in transversal sections (15 μm-thick) with a cryostat (Leica) between L3 and L5 segments and serially picked up on gelatine-coated glass slides. Samples were stored at −20° C.
(§4) Sections were stained with Luxol Fast Blue (LFB) (Sigma Aldrich). Briefly, after a graded dehydration, sections were placed in 1 mg/mL of LFB solution in 96% EtOH and 0.05% acetic acid overnight at 37° C. and protected from light. Then, slides were washed with 96% EtOH, rehydrated in distilled water and placed in a 0.5 mg/mL Li2CO3 solution for 3-5 minutes at room temperature. Finally, sections were washed in distilled water, dehydrated again in 100% EtOH and mounted in DPX (Sigma Aldrich). To assess the demyelinated area in the spinal cord, 6 random images per mice were captured at 10× magnification with an Olympus BX51 and the attached Olympus DP73 Camera. The total demyelinated area within the spinal cord was measured with Image J image analysis software.
(§5) EAE induction, functional assessment, and histological analysis were the same as those described in Example 2.
Starting on day 0 (day of immunization), EAE-mice were fed either a dapansutrile-enriched diet or a standard diet. […]

[3] = test system: experimental allergic encephalomyelitis (EAE) mice; test: Oral gavage treatment with dapansutrile in EAE mice starting at disease onset
Experimental: as §1, §2, §3, §4, §5
60 mg/kg of dapansutrile was solubilized with distilled water and administered daily by oral gavage at 60 mg/kg animal weight to mice twice per day. […] Control mice were administered distilled water at the same days. […]

[4] = diet with 3.75 g dapansutrile per kg food, Day 0 to Day 23, vs standard diet (FIG. 2B)
[5] = 60 mg/kg oral gavage twice daily from disease onset, vs vehicle (FIG. 3B)

## CS(=O)(=O)CCC#N [dapansutrile, 3-methanesulfonylpropionitrile]
[1]; vs saline (FIG. 1B)
  demyelination in the lumbar spinal cord (LFB staining): reduced the demyelination in the spinal cord
[1]; vs saline, significant from day 11 to day 21 (FIG. 1A)
  EAE clinical score: significant lower disease scores
[2]; diet with 3.75 g dapansutrile per kg food (about 50 mg/kg/day), Day 0 to Day 23, vs standard diet (FIG. 2A)
  daily EAE clinical scores after disease onset: lower daily EAE clinical scores
[2]; [4]
  cumulative EAE score: lower cumulative EAE scores
  maximum EAE score: lower maximum EAE scores
[2]; diet with 3.75 g dapansutrile per kg food, 23 days after immunization, vs standard food (FIG. 2C)
  reduction of demyelination in the spinal cord: about 2 fold
[3]; 60 mg/kg oral gavage twice daily from disease onset (FIG. 3A)
  reduction in the EAE score compared to vehicle: about 1 point
[3]; [5]
  cumulative clinical EAE score: significantly reduced
  maximum clinical EAE score: significantly reduced
[3]; 60 mg/kg oral gavage twice daily from disease onset, vs vehicle (FIG. 3C)
  demyelination in LFB stained spinal cords: protection against demyelination
